# Test results taken from US20260022142A1, “MACROCYCLIC IMMUNOMODULATORS” (Bristol-Myers Squibb Company, priority 2022, published 2026).
# Numbered stars: 1 amine (or outer) side, 2 acyl side, 3 side chain; on linkers, the order of the positions; unused ones are H or OH. Bridge positions count the residues as written; N and C are the ends. Square brackets hold non-standard residues; d marks the D form. Peptide text beside a SMILES is read from it. * marks the point of attachment. ξ: configuration not given here. Phe(3,4,5-F3) = N[C@@H](Cc1cc(F)c(F)c(F)c1)C(=O)O; ξPhe(4-guanidino) = N=C(N)Nc1ccc(CC(N)C(=O)O)cc1; Phe(4-COOH) = N[C@@H](Cc1ccc(C(=O)O)cc1)C(=O)O; Bip = N[C@@H](Cc1ccc(-c2ccccc2)cc1)C(=O)O; Phe(3-Me) = Cc1cccc(C[C@H](N)C(=O)O)c1; βAsp = O=C(O)[C@H](CC(=O)[*:2])N[*:1]; NH(CH2)12COOH = O=C(O)CCCCCCCCCCCCN*; Val(3-OH) = CC(C)(O)[C@H](N)C(=O)O; Pyrazinecarbonyl = O=C(c1cnccn1)*; hArg = N=C(N)NCCCC[C@H](N)C(=O)O; 4Pal = N[C@@H](Cc1ccncc1)C(=O)O; Cha = N[C@@H](CC1CCCCC1)C(=O)O; Cit = NC(=O)NCCC[C@H](N)C(=O)O; Ile(3ξ) = CCC(C)[C@H](N)C(=O)O; Thr(3ξ) = CC(O)[C@H](N)C(=O)O; 12Ado = NCCCCCCCCCCCC(=O)O; hSer = N[C@@H](CCO)C(=O)O; Carboxymethyl = O=C(O)C*; Orn = NCCC[C@H](N)C(=O)O; Aun = NCCCCCCCCCCC(=O)O; Dab = NCC[C@H](N)C(=O)O; Dap = NC[C@H](N)C(=O)O; AEEA = NCCOCCOCC(=O)O; Ac3c = NC1(C(=O)O)CC1; Propargyl = C#CC*; ξC = NC(CS)C(=O)O
# Molecular target: T1, PD-1/PD-L1 interaction (PE-labeled human PD-L1-Ig binding to Jurkat cell line over-expressing human PD-1) (Homo sapiens, UniProt Q15116)
# T1 construct: expressed in transfected cells; host or cells: Jurkat
# T1 sequence (Q15116 25-288): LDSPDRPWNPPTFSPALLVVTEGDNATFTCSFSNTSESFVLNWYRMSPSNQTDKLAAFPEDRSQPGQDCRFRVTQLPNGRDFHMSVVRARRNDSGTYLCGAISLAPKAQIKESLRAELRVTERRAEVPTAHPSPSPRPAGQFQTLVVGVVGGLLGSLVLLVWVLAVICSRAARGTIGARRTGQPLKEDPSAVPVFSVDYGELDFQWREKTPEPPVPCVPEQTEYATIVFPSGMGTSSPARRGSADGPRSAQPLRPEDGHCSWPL
# Experiment: Jurkat-PD-1 Cell Binding High-Content Screening Assay (CBA)
# Assay type: cell-based
# Conditions: Jurkat cell line over-expressing human PD-1; PE-labeled PD-L1-Ig 20 nM final; read-out: Jurkat hPD1-PDL1 IC50
# Summary of the method: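 Jurkat cells over-expressing human PD-1 (8×10^3 per well, DMEM/10% FCS) preincubated with compound 2 h at 37° C, then PE-labeled human PD-L1-Ig (20 nM final) added for 1 h. Cells fixed with paraformaldehyde, Hoechst-stained, and bound fluorescence quantified by high-content imaging.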
row,Structure (SMILES),IC50 [nM]
1,CC(C)C[C@@H]1NC(=O)[C@H](Cc2c[nH]c3ccccc23)NC(=O)[C@H](CC(=O)O)NC(=O)[C@H](Cc2ccc(C(=O)O)cc2)NC(=O)[C@H](Cc2ccc(OCC(=O)O)cc2)NC(=O)CSC[C@@H](C(=O)NCCOCCOCC(=O)NCCCCCCCCCCC(=O)O)NC(=O)[C@H](CCCCN)NC(=O)[C@H](C(C)C)NC(=O)[C@H](CC2CCCCC2)NC(=O)[C@H](CCN)NC(=O)[C@@H](CC(C)C)NC(=O)[C@H](CCCN)NC(=O)[C@H](Cc2ccc(O)cc2)NC(=O)[C@H](Cc2ccc(-c3ccccc3)cc2)NC1=O [Compound 1241] ({CH2CO}-Y(Carboxymethyl)[Phe(4-COOH)]DWL[Bip]Y[Orn][dL][Dab][Cha]VKC[AEEA][Aun]-OH; thioether N-14),18.4
2,"Cc1cccc(C[C@@H]2NC(=O)[C@H](CC(=O)O)NC(=O)[C@H](Cc3ccc(OCC(=O)O)cc3)NC(=O)[C@H](Cc3ccncc3)NC(=O)CSC[C@@H](C(=O)N[C@@H](CCN)C(=O)NCCCCCCCCCCC(=O)O)NC(=O)[C@H](CO)NC(=O)[C@H](C(C)(C)O)NC(=O)[C@H](CC3CCCCC3)NC(=O)[C@H](CCN)NC(=O)[C@@H](CC(C)C)NC(=O)[C@H](CCCN)NC(=O)[C@H](Cc3ccc(OCC(=O)O)cc3)NC(=O)[C@H](Cc3ccc(-c4ccccc4)cc3)NC(=O)[C@H](Cc3cc(F)c(F)c(F)c3)NC2=O)c1 [Compound 2202] ({CH2CO}-[4Pal]Y(Carboxymethyl)D[Phe(3-Me)][Phe(3,4,5-F3)][Bip]Y(Carboxymethyl)[Orn][dL][Dab][Cha][Val(3-OH)]SC[Dab][Aun]-OH; thioether N-14)",25.9
3,C#CCOC[C@@H]1NC(=O)[C@H](C(C)C)NC(=O)[C@H](CC2CCCCC2)NC(=O)[C@H](CCN)NC(=O)[C@@H](CC(C)C)NC(=O)[C@H](CCCN)NC(=O)[C@H](Cc2ccc(OCC(=O)O)cc2)NC(=O)[C@H](Cc2ccc(-c3ccccc3)cc2)NC(=O)[C@H](Cc2ccc(OCC(=O)O)cc2)NC(=O)[C@H](Cc2cccc(C)c2)NC(=O)[C@H](CC(=O)O)NC(=O)[C@H](Cc2ccncc2)NC(=O)[C@H](Cc2ccc(OCC(=O)O)cc2)NC(=O)CSC[C@@H](C(=O)N[C@@H](CCN)C(=O)NCCCCCCCCCCC(=O)O)NC1=O [Compound 1250] ({CH2CO}-Y(Carboxymethyl)[4Pal]D[Phe(3-Me)]Y(Carboxymethyl)[Bip]Y(Carboxymethyl)[Orn][dL][Dab][Cha]VS(Propargyl)C[Dab][Aun]-OH; thioether N-14),40.4
4,CCC(C)[C@@H]1NC(=O)[C@H](CC2CCCCC2)NC(=O)[C@H](CCN)NC(=O)[C@@H](CC(C)C)NC(=O)[C@H](CCCN)NC(=O)[C@H](C(C)CC)NC(=O)[C@H](Cc2ccc(-c3ccccc3)cc2)NC(=O)[C@H](CC(C)C)NC(=O)[C@H](Cc2c[nH]c3ccccc23)NC(=O)[C@H](CC(=O)O)NC(=O)[C@H](Cc2ccc(OCC(=O)O)cc2)NC(=O)C(Cc2ccc(N=C(N)N)cc2)NC(=O)CSC[C@@H](C(=O)N[C@@H](CC(N)=O)C(=O)NCCOCCOCC(=O)NCCCCCCCCCCC(=O)O)NC(=O)[C@H](CO)NC1=O (stereo partly drawn) [Compound 3117] ({CH2CO}-[ξPhe(4-guanidino)]Y(Carboxymethyl)DWL[Bip][Ile(3ξ)][Orn][dL][Dab][Cha][Ile(3ξ)]SCN[AEEA][Aun]-OH; thioether N-14),160
5,CC[C@H](C)[C@@H]1NC(=O)[C@H](Cc2ccc(-c3ccccc3)cc2)NC(=O)[C@H](C(C)C)NC(=O)[C@H](Cc2c[nH]c3ccccc23)NC(=O)[C@H](CC(=O)O)NC(=O)[C@H](Cc2ccc(OCC(=O)O)cc2)NC(=O)[C@H](Cc2ccncc2)NC(=O)CSC[C@@H](C(=O)N[C@@H](CCCN)C(=O)NCCOCCOCC(=O)NC2(C(=O)NCCCCCCCCCCC(=O)O)CC2)NC(=O)[C@H]([C@@H](C)O)NC(=O)[C@H](C(C)C)NC(=O)[C@H](CC(C)C)NC(=O)[C@H](CCN)NC(=O)[C@@H](CC(C)C)NC(=O)[C@H](CCCN)NC1=O [Compound 2005] ({CH2CO}-[4Pal]Y(Carboxymethyl)DWV[Bip]I[Orn][dL][Dab]LVTC[Orn][AEEA][Ac3c][Aun]-OH; thioether N-14),11.6

# The remaining lines, values ahead:
row,IC50 [nM],Structure (SMILES)
1,40.9,CC(C)C[C@H]1NC(=O)[C@H](CCCN)NC(=O)[C@H](C(C)C)NC(=O)[C@H](Cc2ccc(-c3ccccc3)cc2)NC(=O)[C@H](C(C)C)NC(=O)[C@H](Cc2c[nH]c3ccccc23)NC(=O)[C@H](CC(=O)O)NC(=O)[C@H](Cc2ccc(OCC(=O)O)cc2)NC(=O)[C@H](CN)NC(=O)CSCC(C(=O)N[C@H](CCCCN)C(=O)NCCCCCCCCCCC(=O)O)NC(=O)[C@H]([C@@H](C)O)NC(=O)[C@H](C(C)C)NC(=O)[C@H](CC2CCCCC2)NC(=O)[C@H](Cc2cnc[nH]2)NC1=O (stereo partly drawn) [Compound 1120] ({CH2CO}-[Dap]Y(Carboxymethyl)DWV[Bip]V[Orn][dL]H[Cha]VT[ξC][dK][Aun]-OH; thioether N-14)
2,92.2,CC(C)C[C@@H]1NC(=O)[C@H](Cc2c[nH]c3ccccc23)NC(=O)[C@H](CC(=O)O)NC(=O)[C@H](Cc2ccc(OCC(=O)O)cc2)NC(=O)[C@H](CCN)NC(=O)CSC[C@@H](C(=O)NCCOCCOCC(=O)NCCCCCCCCCCC(=O)O)NC(=O)[C@H](CO)NC(=O)[C@H](C(C)C)NC(=O)[C@H](CC2CCCCC2)NC(=O)[C@H](Cc2cnc[nH]2)NC(=O)[C@@H](CC(C)C)NC(=O)[C@H](CCCN)NC(=O)[C@H](C(C)C)NC(=O)[C@H](Cc2ccc(-c3ccccc3)cc2)NC1=O [Compound 3701] ({CH2CO}-[Dab]Y(Carboxymethyl)DWL[Bip]V[Orn][dL]H[Cha]VSC[AEEA][Aun]-OH; thioether N-14)
3,20.5,Cc1cccc(C[C@@H]2NC(=O)[C@H](CC(=O)O)NC(=O)[C@H](Cc3ccc(OCC(=O)O)cc3)NC(=O)[C@H](CCCNC(=O)c3cnccn3)NC(=O)CSC[C@@H](C(=O)N[C@@H](CCCN)C(=O)N[C@@H](CO)C(=O)NCCCCCCCCCCCC(=O)O)NC(=O)[C@H](C(C)O)NC(=O)[C@H](CCO)NC(=O)[C@H](CC3CCCCC3)NC(=O)[C@H](CCN)NC(=O)[C@@H](CC(C)C)NC(=O)[C@H](CCCN)NC(=O)[C@H](CCCNC(N)=O)NC(=O)[C@H](Cc3ccc(-c4ccccc4)cc3)NC(=O)[C@H](C(C)C)NC2=O)c1 (stereo partly drawn) [Compound 3583] ({CH2CO}-[Orn](Pyrazinecarbonyl)Y(Carboxymethyl)D[Phe(3-Me)]V[Bip][Cit][Orn][dL][Dab][Cha][hSer][Thr(3ξ)]C[Orn]S[12Ado]-OH; thioether N-14)
4,5,Cc1cccc(C[C@@H]2NC(=O)[C@H](CC(=O)O)NC(=O)[C@H](Cc3ccc(OCC(=O)O)cc3)NC(=O)[C@H](CN)NC(=O)CSC[C@@H](C(=O)N[C@@H](C)C(=O)N[C@@H](CC(=O)NCC(=O)NCCCCCCCCCCC(=O)O)C(=O)O)NC(=O)[C@H]([C@@H](C)O)NC(=O)[C@H](C(C)C)NC(=O)[C@H](CC3CCCCC3)NC(=O)[C@H](CCN)NC(=O)[C@@H](CC(C)C)NC(=O)[C@H](CCCN)NC(=O)[C@H](CCCNC(N)=O)NC(=O)[C@H](Cc3ccc(-c4ccccc4)cc3)NC(=O)[C@H](C(C)C)NC2=O)c1 [Compound 1012] ({CH2CO}-[Dap]Y(Carboxymethyl)D[Phe(3-Me)]V[Bip][Cit][Orn][dL][Dab][Cha]VTCA[βAsp]G[Aun]-OH; thioether N-14)
5,16.5,CC(C)C[C@H]1NC(=O)[C@H](CCCN)NC(=O)[C@H](C(C)C)NC(=O)[C@H](Cc2ccc(-c3ccccc3)cc2)NC(=O)[C@H](C(C)C)NC(=O)[C@H](Cc2c[nH]c3ccccc23)NC(=O)[C@H](CC(=O)O)NC(=O)[C@H](Cc2ccc(OCC(=O)O)cc2)NC(=O)[C@H](CCCCNC(=N)N)NC(=O)CSC[C@@H](C(=O)NCC(=O)NCCOCCOCC(=O)N[C@@H](CCCN)C(=O)NCCCCCCCCCCCCC(=O)O)NC(=O)[C@H](CO)NC(=O)[C@H](C(C)C)NC(=O)[C@H](CC2CCCCC2)NC(=O)[C@H](CCN)NC1=O [Compound 3037] ({CH2CO}-[hArg]Y(Carboxymethyl)DWV[Bip]V[Orn][dL][Dab][Cha]VSCG[AEEA][Orn]-{NH(CH2)12COOH}; thioether N-14)
6,38.2,Cc1cccc(C[C@@H]2NC(=O)[C@H](CC(=O)O)NC(=O)[C@H](Cc3ccc(OCC(=O)O)cc3)NC(=O)[C@H](Cc3ccc(OCC(=O)O)cc3)NC(=O)CSC[C@@H](C(=O)N[C@@H](CCN)C(=O)NCCCCCCCCCCC(=O)O)NC(=O)[C@H](C(C)O)NC(=O)[C@H](C(C)C)NC(=O)[C@H](CC3CCCCC3)NC(=O)[C@H](CCN)NC(=O)[C@@H](CC(C)C)NC(=O)[C@H](CCCN)NC(=O)[C@H](Cc3ccc(OCC(=O)O)cc3)NC(=O)[C@H](Cc3ccc(-c4ccccc4)cc3)NC(=O)[C@H](C(C)C)NC2=O)c1 (stereo partly drawn) [Compound 2263] ({CH2CO}-Y(Carboxymethyl)Y(Carboxymethyl)D[Phe(3-Me)]V[Bip]Y(Carboxymethyl)[Orn][dL][Dab][Cha]V[Thr(3ξ)]C[Dab][Aun]-OH; thioether N-14)
7,24.1,Cc1cccc(C[C@@H]2NC(=O)[C@H](CC(=O)O)NC(=O)[C@H](Cc3ccc(OCC(=O)O)cc3)NC(=O)[C@H](CCCNC(=N)N)NC(=O)CSC[C@@H](C(=O)N[C@@H](CCN)C(=O)NCCCCCCCCCCC(=O)O)NC(=O)[C@H](CO)NC(=O)[C@H](C(C)C)NC(=O)[C@H](CC3CCCCC3)NC(=O)[C@H](CCN)NC(=O)[C@@H](CC(C)C)NC(=O)[C@H](CCCN)NC(=O)[C@H](Cc3ccc(OCC(=O)O)cc3)NC(=O)[C@H](Cc3ccc(-c4ccccc4)cc3)NC(=O)[C@H](C(C)(C)O)NC2=O)c1 [Compound 2110] ({CH2CO}-RY(Carboxymethyl)D[Phe(3-Me)][Val(3-OH)][Bip]Y(Carboxymethyl)[Orn][dL][Dab][Cha]VSC[Dab][Aun]-OH; thioether N-14)
8,39.7,Cc1cccc(C[C@@H]2NC(=O)[C@H](CC(=O)O)NC(=O)[C@H](Cc3ccc(OCC(=O)O)cc3)NC(=O)[C@H](C(C)O)NC(=O)CSC[C@@H](C(=O)N[C@@H](CCN)C(=O)NCCCCCCCCCCC(=O)O)NC(=O)[C@H](C(C)O)NC(=O)[C@H](C(C)C)NC(=O)[C@H](CC3CCCCC3)NC(=O)[C@H](CCN)NC(=O)[C@@H](CC(C)C)NC(=O)[C@H](CCCN)NC(=O)[C@H](CCC(=O)O)NC(=O)[C@H](Cc3ccc(-c4ccccc4)cc3)NC(=O)[C@H](C(C)C)NC2=O)c1 (stereo partly drawn) [Compound 3441] ({CH2CO}-[Thr(3ξ)]Y(Carboxymethyl)D[Phe(3-Me)]V[Bip]E[Orn][dL][Dab][Cha]V[Thr(3ξ)]C[Dab][Aun]-OH; thioether N-14)
